Values quoted from earlier work in patent US8652520B2, “Combination tablet with chewable outer layer” (Vitalis LLC, priority 2007, dated 2014).

How the values were obtained:
[1] = risk of bleeding peptic ulcer, literature
[2] = tested on: anti-platelet activity of aspirin; conditions: co-administered with aspirin, literature

| Structure (SMILES) | GI side effects among the NSAID agents [1] | anti-platelet activity of aspirin when given in conjunction [2] |
| --- | --- | --- |
| O=C(O)Cc1ccccc1Nc1c(Cl)cccc1Cl [diclofenac] | least GI side effects |  |
| CC(C)Cc1ccc(C(C)C(=O)O)cc1 (stereo not drawn) [ibuprofen, 2-[4-(2-methylpropyl)phenyl]propanoic acid] | least GI side effects | decreased |
